Molecules are shown by their SMILES.

This data set can be described thus: Solubility test (Chinese Pharmacopoeia 2010 criteria). The data set is classed as physicochemical. Particulars: 25° C.±2° C.; for solubility in 95% ethanol (pharmacopoeia term) / solubility in water (pharmacopoeia term): observed within 30 minutes. As for the experimental part: The regulations on solubility in the guide to the second volume of Chinese Pharmacopoeia 2010 edition are used as criteria.
Weigh samples ground to fine powder (sample B: the compound of formula A; sample C: the methanesulfonate polymorph of the compound of formula A prepared in Embodiment 1), put the samples into a certain volume of solvent at 25° C.±2° C., and vigorously shake the samples for 30 seconds every 5 minutes; observe the dissolution within 30 minutes, wherein if solute particles are not observed, the samples are completely dissolved.

As for `CCCc1nn(C)c2c(=S)[nH]c(-c3cc(C(=S)N4CCN(C)CC4)ccc3OCC)nc12` [sample B, 5-[2-ethoxy-5-(4-methylpiperazin-1-ylthiocarbonyl)phenyl]-1-methyl-3-n-propyl-1,6-dihydro-pyrazolo[4,3-d]pyrimidin-7-thione], the “amount of 95% ethanol in which 1 g of sample is dissolved” value is more than 10000 g, the “solubility in 95% ethanol (pharmacopoeia term)” value is “almost insoluble”, the “amount of water in which 1 g of sample is dissolved” value is reported as more than 10000 g and the “solubility in water (pharmacopoeia term)” value was “hardly soluble”.

For `CCCc1nn(C)c2c(=S)[nH]c(-c3cc(C(=S)N4CCN(C)CC4)ccc3OCC)nc12` [sample C, 5-[2-ethoxy-5-(4-methylpiperazin-1-ylthiocarbonyl)phenyl]-1-methyl 3-n-propyl-1,6-dihydro-pyrazolo[4,3-d]pyrimidin-7-thione methanesulfonate polymorph], the “amount of 95% ethanol in which 1 g of sample is dissolved” value is not above 90 g, the “solubility in 95% ethanol (pharmacopoeia term)” value is reported as “slightly soluble”, the “amount of water in which 1 g of sample is dissolved” value was not above 800 g and the “solubility in water (pharmacopoeia term)” value is “slightly soluble”.
